This is an account of results in patent US20140099354A1, “BIOPASSIVATING MEMBRANE STABILIZATION BY MEANS OF NITROCARBOXYLIC ACID-CONTAINING PHOSPHOLIPIDS IN PREPARATIONS AND COATINGS” (priority 2011, published 2014).

One data set deals with sciatic nerve. The experiment in a line: Viability of cryopreserved nerve grafts (Annexin-V staining, FACS). It counts as cell-based, rats. The following applies: 100 mmolar solution 1 hour; −30° C. 72 hours.
The test system of data set [1] is human umbilical venous endothelial cells (HUVEC). Put plainly: Endothelial cell homing on coated cobalt-chromium metal grids. In kind it is cell-based. The following applies: days 3, 7 and 14. Here is the method:
To investigate the cell homing of endothelial cells onto phospholipid-coated artificial surfaces, metal grids with a cobalt-chromium alloy such as has been described in example 2 were coated. Coatings were performed with nitro-carboxylic acid-containing phosphatidylcholine according to the examples N2-N6 and O6. These were special product mixtures of different esterified 1,2-di(nitro linoleoyl)-sn-glycero-3-phosphatidylcholines (N2), from different esterified 1,2-di(nitro arachidonoyl)-sn-glycero-3-phosphatidylcholines (N3), from different esterified 1,2-di(nitroarachidonoyl)-sn-glycero-3-phosphatidylcholines (N4), different esterified 1,2-di(nitro-γ-linolenoyl)-sn-glycero-3-phosphatidylcholines (N5) or different esterified 1,2-di(nitro-DHA)-sn-glycero-3-phosphatidylcholines (N6) and mixture of 1-palmitoyl-2-(10-hydroxy-9-nitro-α-linolenoyl)-sn-3-glycero-phosphocholine and 1-palmitoyl-2-(9-hydroxy-10-nitro-α-linolenoyl)-sn-3-glycero-phosphocholine (06). Uncoated metal grids served as controls. The grids were placed in a culture dish containing a gel matrix on which human umbilical venous endothelial cells (HUVEC) were grown to confluence. The culture media consisted of 5% FCS, and was changed every second day. Cultivation was performed according to standard procedures. The culture dishes were carefully washed superficially several times after 3, 7, and 14 days with saline. […]

A further data set deals with ovarian tissue strips. Put plainly: Cryopreservation of ovarian tissue strips: intact follicles. The following applies: liquid nitrogen 14 days, cultured 14 days.
Data set [2] concerns the target Glycophorin A (GpA) peptides (Homo sapiens, UniProt P02724). The following applies: 10-50% (mol/mol) admixed to DSPC vesicles; versus native phospholipids.
Protocol: The change of the Frster resonance energy transfer (FRET) of fluorescence-labelled peptides with α helical trans-membrane structure in a double lipid layer can be used for determination of the concentration of monomeric and dimeric trans-membrane helices and for quantitative determination of helix-helix interactions.
FRET measurements were carried out with fluorescence-marked Glycophorin A (GpA) peptides. The transmembrane GpA forms dimers, whereby the energy transfer can be measured. 5-carboxyfluorescein and tetramethyl-6-carboxyrhodamine were used as chromophores.
Degree of dimerization of the model protein was measured in a direct comparison between native phospholipids and the corresponding phospholipids with a nitrated alkyl chain for the given concentrations of phospholipids (10-50%, mol/mol) admixed to the DSPC vesicles.
For determination of the dimerization, the peptides of FL GpAwt and TAMRA GpAwt were weighed and dissolved in TFE. The measurements were carried out on a fluorescence spectrometer of type Aminco Bowman series 2 (Thermo Spectronic).
In data set [3] the test system is HeLa, HUVEC and L929 fibroblast. The experiment in a line: Volumetric measurement of cells (Coulter counter). It counts as cell-based. Conditions: time-dependent increase after incubation. Here is the method:
(§1) Physiologically occurring phospholipids can be taken up by virtually all cell lines in large quantities. It is known that phospholipids that contain non-physiologically occurring fatty acid residues can cause cell lyses or death. Three cell lines (HeLa, HUVEC and L929 fibroblast) were cultured in a suitable culture medium of 5% FCS at 37° C. and 5% CO2 concentrations to a subconfluent concentration of 1.5×10^5 cells.
(§2) SOPC, DOPC, POPC, ONOPC, PNLPC, and the free fatty acids of OA, LA, NOOA, and NOLA were dissolved in 0.5% DMSO. Experiments were performed also with nitro-carboxylic acid-containing phospholipids according to examples N15-N20, G, O3, O5, P2, P5, P8, P9, P11 and Q. PL prepared as aqueous suspensions were added the culture flasks in order to achieve PL concentrations in the culture medium from 10 μmol to 1 mmol. Cell cultures were incubated for 24 h and 48 h. Thereafter, the culture medium was removed and the cells washed twice. Following this, cells suspensions were given in four vials to perform the following analysis:
Volumetric measurement of cells was done in a Histopenz (Sigma) solution with an effective NaCl concentration of 0.9% (approximately 290 mOsm) heated to 37° C. in which the cells were suspended; thereafter the solution was sonified for 2 minutes. Measurements were done using a Coulter counter Z2.

For data set [4] the test system is unchanged. Put plainly: Cell viability with the live/dead assay. It counts as cell-based. Here is the method: as §1, §2
Studies of cell viability were carried out with the live/dead assay (Molecular Probes). For this purpose, the cells were washed twice with PBS solution and then seeded into a culture medium. Incubation with the staining solution (in 0.1% DMSO) was carried out over 30 minutes in the dark. The viability analyses were performed using fluorescence microscopy.

For data set [5] the test system is unchanged. The experiment in a line: cells. In kind it is cell-based. The following applies: tested concentrations 10 μmol to 1 mmol; EC50 could not be calculated. As for the experimental part:
as §1
SOPC, DOPC, POPC, ONOPC, PNLPC, and the free fatty acids of OA, LA, NOOA, and NOLA were dissolved in 0.5% DMSO. […] Cell cultures were incubated for 24 h and 48 h. Thereafter, the culture medium was removed and the cells washed twice. Following this, cells suspensions were given in four vials to perform the following analysis:
For the determination of viability, phenol red was added to the suspended cells. After 4 h, the medium was renewed and 10 μl of the MTT solution was added. The cells were cultured for 4 hours, and then a 10% SDS solution was pipetted. After 24 h, absorption of formazan crystals was measured at 500 nm using a power wave X (bio-tek instruments, Inc., USA). For the quantitative comparison of toxicity, the EC50 was determined.

Data set [6] is described as follows: Transisomerization of unsaturated fatty acids in coatings on balloon catheters (FTIR). In kind it is physicochemical. An excerpt: The natural phospholipids POPC and SLPE, as well as the analogous nitrated phospholipids as shown in example C(PNOPC) and […]), as well as the phospholipids according to examples […], and S as a mono substance and as a combination of the native phospholipids and the corresponding nitro-carboxylic acid (s)-containing phospholipids mixed in a ratio of 1:1 were used for this investigation. Balloon catheters were coated by means of the Langmuir-Schaefer procedure where the balloon segment was aligned longitudinally and coaxial to the solution surface, dipping into the liquid for approx. 1 mm over the entire length. Then the catheter was slowly rotated around its axis 5 times. […] The solution was cooled and given to the coating solution then. In case of incomplete dissolution of the phospholipids or if they separated when cooled, DMSO was added at a concentration of up to 20 vol.-%, preferably up to 10 vol.-%. After coating, the catheters were vacuum dried for 8 hours in order to remove residual solvent. The abrasion or loss of coating layers was determined by weighing the catheter before and after coating as well as after the mechanical stability test in the tubing system as described above using a high precision balance. In order to examine the long-term stability of the coating, catheters coated with phospholipids were sealed with polyethylene glycol 1000 (Roth, Germany). For that purpose PEG 1000 was melted and mixed with a 10% ethanol solution at 50° C. A portion of the phospholipid-coated balloon catheter was coated by means of dip-coating in this PEG solution at 50° C., and dried thereafter for 8 hours. Stability of cis-conformity of unsaturated fatty acids of the phospholipids investigated was determined after heat treatment at 60° C. for three hours in a heating cabinet. After 24 hours and after 2 months the phospholipids coated on the balloon surface were detached and analyzed. Detachment was carried out in 50 ml of a chloroform:methanol mixture (3:1, v: v). A 10 μl aliquot was used for a FTIR spectroscopy. For this purpose the samples were dropped on a ZnSe ATR crystal and then the solvent was evaporated. Degree of transisomerization was determined using the integral of intensity of proton resonance in comparison to that measured from a cis configuration of the reference substances. Measurements were performed 24 hours after coating, heat treatment and after 2 months of storage at 25° C. under sterile room air conditions.

Sequence of Glycophorin A (GpA) peptides (P02724 92-114 limits assumed, species assumed): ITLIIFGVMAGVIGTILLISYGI
Protocol for sciatic nerve: The sciatic nerve was prepared and sectured in anesthetized rats. The nerve pieces were freed from connective tissue and divided into 3 parts. Specimens were placed in culture DMEM medium containing low a concentration of glucose (1 g/L) with L-glutamine (PAA, Pasching Austria) for 24 hours. […] Nerve specimens from the same animals that received no pretreatment served as controls. After incubation, the specimens were cultured for 24 hours. In a further control group, specimens were cryopreserved without any pretreatment. The specimens were covered with a sterile gauze pad moistened with culture medium. Thereafter the temperature was gradually cooled to −30° C. After 72 hours, the nerve pieces were gradually rewarmed to 37° C. After this, renewed culturing was done for 48 hours. The nerve pieces were dissected enzymatically then (collagenase A and D, Roche, Mannheim, Germany) followed by a mechanical separation through multiple uptake and release in a glass pipette. The isolated cells were washed and marked with a living/death staining (Annexin-V-Fluos staining Kit, Roche Diagnostics, Mannheim, Germany) and quantified using FACS analysis. The number of living cells identified was set in relation to the total cells count.

Consider “1,2-di-(nitro-DHA)-sn-glycero-3-phosphatidylcholines [Example N6]”, for which the “proportion of living cells relative to non-frozen control” value with sciatic nerve is recorded as 72%. Further, the “endothelial cell coverage and growth on coated struts” value in data set [1] is on record as “slight tendency for a stronger growth of cells”. Moreover, in the data set on ovarian tissue strips, the “rate of intact follicles relative to the control group” value was found to be 92%.
On to `CCCCC/C=C\C/C=C(\CCCCCCCC(=O)O[C@H](COC(=O)CCCCCCCCCCCCCCCCC)COP(=O)([O-])OCC[N+](C)(C)C)[N+](=O)[O-]` [Example P13, 1-stearoyl-2-(E-9-nitrolinoleoyl)-sn-3-glycerophosphocholine], for which the “degree of dimerization of the model membrane protein” value in data set [2] is “significantly greater reduction of dimerization”.
With `CCCCCCCC/C=C\CCCCCCCC(=O)O[C@H](COC(=O)CCCCCCCCCCCCCCC)COP(=O)([O-])OCC[N+](C)(C)C` [POPC, 1-Palmitoyl-2-oleoyl-sn-glycero-3-PC, reference compound], the “cell volume (increase in size to)” value in data set [3] stood at 160%. The “viability according to the live/dead staining” value in data set [4] is “high rate of viability”. In addition, in data set [5], the “viability as quantified by the MTT assay” value was “only slightly decreased”. Besides, the “proportion of trans-fatty acids” value in data set [6] (after heat treatment (60° C., three hours)) is 80%. Moreover, the degree of transisomerization is 95% in data set [6] (coatings after 2 months) and 86% in data set [6] (top coating with PEG, after 2 month).
Regarding “1,2-di-(nitrolinoleoyl)-sn-glycero-3-phosphatidylcholines [Example N2]”, the “proportion of living cells relative to non-frozen control” value with sciatic nerve is 79%. The “endothelial cell coverage and growth on coated struts” value in data set [1] is listed as “slight tendency for a stronger growth of cells”. Besides, the “rate of intact follicles relative to the control group” value with ovarian tissue strips is listed as 94%.
